Assay results reported in ChEMBL document CHEMBL3091287, “The ameliorating effects of 2,3-dihydroxy-4-methoxyacetophenone on scopolamine-induced memory impairment in mice and its neuroprotective activity” (Bioorg Med Chem Lett, 2013).
The source made the active and inactive calls. The calls are words filed in the database; no cut-off is given here.

How the values were obtained:
[1] = Antioxidant activity assessed as hydrogen peroxide radical scavenging activity; assay type: functional
[2] = system: Radical scavenging activity; assay: Antioxidant activity assessed as DPPH radical scavenging activity after 30 mins; assay type: functional
HT-22 [3] = assay: Neuroprotective activity in mouse HT22 cells assessed as inhibition of glutamate-induced increase of intracellular calcium level at 10 to 100 uM after 2 hrs by Fura-2 AM assay; assay type: functional, cell-based
Mus musculus [4] = assay: Toxicity in ICR mouse assessed as motor ability by measuring reduction of scopolamine-induced swimming speed at 1 to 50 mg/kg, po administered 1 hr before scopolamine challenge measured on day 4 by Morris water maze test; assay type: organism-based; design: dose 1-50 mg/kg, route oral; conditions: in vivo
Mus musculus [5] = assay: Cognitive-enhancing effect in ICR mouse assessed as reduction of scopolamine-induced increase in mean distance to platform at 1 to 50 mg/kg, po administered 1 hr before scopolamine challenge measured on day 4 by Morris water maze test; assay type: functional, organism-based
Mus musculus [6] = assay: Cognitive-enhancing effect in ICR mouse assessed as reduction of scopolamine-induced escape latency at 50 mg/kg, po administered 1 hr before scopolamine challenge measured on day 2 to 4 during trial 1 and 2 by Morris water maze test; assay type: functional, organism-based; design: dose 50 mg/kg
Mus musculus [7] = assay: Cognitive-enhancing effect in ICR mouse assessed as reduction of scopolamine-induced escape latency at 40 mg/kg, po administered 1 hr before scopolamine challenge measured on day 3 during trial 1 and 2 by Morris water maze test; assay type: functional, organism-based; design: dose 40 mg/kg
Mus musculus [8] = assay: Cognitive-enhancing effect in ICR mouse assessed as reduction of scopolamine-induced escape latency at 1 to 20 mg/kg, po administered 1 hr before scopolamine challenge measured on day 4 during trial 1 and 2 by Morris water maze test; assay type: functional, organism-based
Mus musculus [9] = assay: Cognitive-enhancing effect in ICR mouse assessed as reduction of scopolamine-induced escape latency at 1 to 20 mg/kg, po administered 1 hr before scopolamine challenge measured on day 3 during trial 1 and 2 by Morris water maze test; assay type: functional, organism-based
HT-22 [10] = assay: Neuroprotective activity in mouse HT22 cells assessed as inhibition of glutamate-induced cell death after 24 hrs by MTT assay; assay type: functional, cell-based
HT-22 [11] = assay: Neuroprotective activity in mouse HT22 cells assessed as inhibition of glutamate-induced cell death at 10 uM after 24 hrs by MTT assay; assay type: functional; conditions: HT-22, 24 h

IC50 [1]	IC50 [2]	Structure (SMILES)	inhibition [1]	inhibition [2]	inhibition (HT-22 [3])	Activity (Mus musculus [4])	Activity (Mus musculus [5])	Activity (Mus musculus [6])	Activity (Mus musculus [7])	Activity (Mus musculus [8])	Activity (Mus musculus [9])	inhibition (HT-22 [10])	EC50 (HT-22 [10]; HT-22, 24 h)	inhibition at 10 µM (HT-22 [11])
76.8 µM	35.2 µM	O=C1O[C@H]([C@@H](O)CO)C(O)=C1O [ASCORBIC ACID]												
90.8 µM	98.1 µM	COc1ccc(C(C)=O)c(O)c1O	Dose-dependent effect	Dose-dependent effect	Active	Non-toxic	Active	Active	Active	Active	inactive	Dose-dependent effect	10.9 µM	50%
